Data taken from patent publication US10300106B2, “Autophagy-inducing peptide analogs” (Board of Regents, The University of Texas System, priority 2013, dated 2019).
Non-standard residues stand in square brackets, D forms with d. No end group written: not given here.

Tested on: autophagy (p62 degradation, LC3-I to LC3-II conversion)
Test: Biochemical autophagy assays: western blot detection of p62 and of the conversion of LC3-I into LC3-II
Assay type: cell-based
Conditions: 10 micromolar; western blot; compared to 10 micromolar Tat-Beclin 1 compound
Procedure: Autophagy can be detected directly, indirectly or inferentially by conventional assays, such as disclosed and/or exemplified herein, including biochemically (by assessing the generation of Atg8-PE or LC3-II or the degradation of p62) or microscopically (e.g. by observing the localization pattern of fluorescently tagged Atg8 or LC3).
To further assess the components of the beclin 1 peptide required for autophagy-inducing activity, a series of shorter peptides were developed. Activity was measured by biochemical autophagy assays including western blot detection of p62 (a protein degraded by autophagy) and western blot detection of the conversion of LC3-I into LC3-II (the lipidated autophagosome-associated form of LC3).

| Sequence | LC3-II conversion | p62 degradation |
| --- | --- | --- |
| VFNATFEIWHD [Wild-type (wt)] | increased LC3-II conversion | increased p62 degradation |

Same assay, conditions: relative to the wild-type (wt) peptide; all peptides carry the 11 amino acid HIV TAT PTD and diglycine linker

| Sequence | Activity (autophagy inducing activity) |
| --- | --- |
| CFNATFEIWHD ({Tat PTD}-GGCFNATFEIWHD) [Mutant 1, HIV TAT PTD-diglycine fusion peptide] | ~wt |
| DHWIHFTANWV ([dD][dH][dW][dI][dH][dF][dT][dA][dN][dW][dV]; also: fused to TAT PTD via diglycine linker) [Mutant 30, D-retro-inverso counterpart of Mutant 17, with TAT PTD and diglycine linker] | >>wt |
| FNATFEIWH (HIV TAT PTD and diglycine linker fused) [Mutant 26, HIV TAT PTD-diglycine fusion peptide] | >>wt |
| FNATFEIWHD (HIV TAT PTD and diglycine linker fused) [Mutant 21, HIV TAT PTD-diglycine fusion peptide] | >wt |
| VFDATFEIWHD ({Tat PTD}-GGVFDATFEIWHD) [Mutant 3, HIV TAT PTD-diglycine fusion peptide] | <<wt |
| VFNACFEIWHD (HIV TAT PTD and diglycine linker fused) [Mutant 5, HIV TAT PTD-diglycine fusion peptide] | <wt |
| VFNATFDIWHD (HIV TAT PTD and diglycine linker fused) [Mutant 7, HIV TAT PTD-diglycine fusion peptide] | ~wt |
| VFNATFEFWHD (HIV TAT PTD and diglycine linker fused) [Mutant 18, HIV TAT PTD-diglycine fusion peptide] | ~wt |
| VFNATFEIFHD (HIV TAT PTD and diglycine linker fused) [Mutant 9, HIV TAT PTD-diglycine fusion peptide] | ~wt |
| VFNATFEIWH (HIV TAT PTD and diglycine linker fused) [Mutant 25, HIV TAT PTD-diglycine fusion peptide] | >wt |
| VFNATFEIWHD [Wild-type (wt)] | wt |
| VFNATFEIWHE (HIV TAT PTD-diglycine fusion) [Mutant 11, HIV TAT PTD-diglycine fusion peptide] | ~wt |
| VFNATFEIWYD (HIV TAT PTD-diglycine fusion) [Mutant 10, HIV TAT PTD-diglycine fusion peptide] | ~wt |
| VFNATFELWHD (HIV TAT PTD and diglycine linker fused) [Mutant 8, HIV TAT PTD-diglycine fusion peptide] | >wt |
| VFNATFEMWHD (HIV TAT PTD-diglycine fusion) [Mutant 16, HIV TAT PTD-diglycine fusion peptide] | ~wt |
| VFNATFERWHD (HIV TAT PTD and diglycine linker fused) [Mutant 20, HIV TAT PTD-diglycine fusion peptide] | ~wt |
| VFNATFEVWHD (HIV TAT PTD-diglycine fusion) [Mutant 14, HIV TAT PTD-diglycine fusion peptide] | ~wt |
| VFNATFEYWHD (HIV TAT PTD and diglycine linker fused) [Mutant 19, HIV TAT PTD-diglycine fusion peptide] | ~wt |
| VFNATWEIWHD (HIV TAT PTD and diglycine linker fused) [Mutant 6, HIV TAT PTD-diglycine fusion peptide] | <wt |
| VFNSTFEIWHD ({Tat PTD}-GGVFNSTFEIWHD) [Mutant 4, HIV TAT PTD-diglycine fusion peptide] | <<wt |
| VLNATFEIWHD (HIV TAT PTD-diglycine fusion) [Mutant 15, HIV TAT PTD-diglycine fusion peptide] | ~wt |
| VWNATFEIWHD ({Tat PTD}-GGVWNATFEIWHD) [Mutant 2, HIV TAT PTD-diglycine fusion peptide] | >wt |
| VWNATFELWHD (HIV TAT PTD-diglycine fusion) [Mutant 12, HIV TAT PTD-diglycine fusion peptide] | ~wt |
| VWNATFHIWH (HIV TAT PTD and diglycine linker fused) [Mutant 28, HIV TAT PTD-diglycine fusion peptide] | >>wt |
| VWNATFHIWHD (HIV TAT PTD-diglycine fusion) [Mutant 17, HIV TAT PTD-diglycine fusion peptide] | >>wt |
| VYNATFEIWHD (HIV TAT PTD-diglycine fusion) [Mutant 13, HIV TAT PTD-diglycine fusion peptide] | <wt |
| WNATFHIWH (HIV TAT PTD and diglycine linker fused) [Mutant 27, HIV TAT PTD-diglycine fusion peptide] | >>wt |
| WNATFHIWHD (HIV TAT PTD and diglycine linker fused) [Mutant 29, HIV TAT PTD-diglycine fusion peptide] | >>wt |
